Assay results: US9920030B2 (priority 2006, dated 2018)
Where two headings read alike, the source gives them in different places.

Columns and labels:
Type in all cases: in vivo
[1] = system: Plasmopara vilicola (the causal agent of grape downy mildew); experiment: Test A: grape downy mildew, test suspension sprayed on grape seedlings after inoculation, visual disease rating; conditions: for pest or weed control at 40 ppm: Plasmopara, 144 h, read-out: Percent Disease Control, Test A
In short: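 Compounds dissolved in acetone (3% of final volume), suspended in 50/50 acetone/water with 250 ppm Trem 014; 200 ppm to run-off equals 500 g/ha. Seedlings inoculated, held saturated at 20 °C 24 h, then sprayed; 5 days at 20 °C, 24 h saturated, then visual rating, 0–100% control versus untreated.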

[2] = system: Phytophthora infestans (the causal agent of tomato late blight); experiment: whole plant or invertebrate; conditions: for pest or weed control at 40 ppm: Phytophthora infestans, 144 h, read-out: Percent Disease Control, Test B
[3] = system: Phytophthora infestans (the causal agent of tomato late blight); experiment: whole plant or invertebrate; conditions: for pest or weed control at 40 ppm: Phytophthora infestans, 96 h, read-out: Percent Disease Control, Test C
[4] = compounds without asterisk (application rate not given), 100 = 100% disease control, 0 = no control relative to the controls

Row | SMILES | Percent Disease Control, Test A ([1]; * tested at 40 ppm) | Percent Disease Control, Test B ([2]; * tested at 40 ppm) | Percent Disease Control, Test C ([3]; * tested at 40 ppm) | further results
1 | Cc1cc(C(F)(F)F)nn1CC(=O)N1CCC(c2nc(C3=NOC(N4CCOC4=O)C3)cs2)CC1 (stereo not drawn) [Compound 213] | 94% | 100% | 98% | –
2 | Cc1cc(C(F)(F)F)nn1CC(=O)N1CCC(c2nc(C3=NO[C@@H](c4c(F)cccc4F)C3)cs2)CC1 [Compound 214, 1-[4-[4-[(5R)-5-(2,6-difluorophenyl)-4,5-dihydro-3-isoxazolyl]-2-thiazolyl]-1-piperidinyl]-2-[5-methyl-3-(trifluoromethyl)-1H-pyrazol-1-yl]ethanone] | – | – | – | pest or weed control at 40 ppm ([1]; * tested at 40 ppm): 100%; pest or weed control at 40 ppm [2]: 100%; pest or weed control at 40 ppm [3]: 99%
3 | Cc1cc(C(F)(F)F)nn1CC(=O)N1CCC(c2nc(C3=NOC(N4C(=O)CCC4=O)C3)cs2)CC1 (stereo not drawn) [Compound 215] | 99% | 100% | 99% | –
4 | Cc1cc(C(F)(F)F)nn1CC(=O)N1CCC(c2nc(C3=NOC(NC(=O)c4ccccc4C(=O)[O-])C3)cs2)CC1.[Na+] (stereo not drawn) [Compound 216] | 100% | 100% | 99% | –
5 | Cc1cc(C(F)(F)F)nn1CC(=O)N1CC=C(c2nc(C3=NOC(c4ccccc4)C3)cs2)CC1 (stereo not drawn) [Compound 217, 1-[4-[4-(4,5-dihydro-5-phenyl-3-isoxazolyl)-2-thiazolyl]-3,6-dihydro-1(2H)-pyridinyl]-2-[5-methyl-3-(trifluoromethyl)-1H-pyrazol-1 yl]ethanone] | – | – | – | pest or weed control at 40 ppm ([1]; * tested at 40 ppm): 95%; pest or weed control at 40 ppm [2]: 100%; pest or weed control at 40 ppm [3]: 99%
6 | Cc1cc(C(F)(F)F)nn1CC(=O)N1CCC(c2nc(C3=NOC4(C)C(=O)c5ccccc5C(O)=C34)cs2)CC1 (stereo not drawn) [Compound 218] | 73% | 63% | 47% | –
7 | Cc1cc(C(F)(F)F)nn1CC(=O)N1CCC(c2nc(C3=NOC(c4nc5ccccc5n4C)C3)cs2)CC1 (stereo not drawn) [Compound 219] | – | – | – | Percent Disease Control, Test A [1, 4]: 100%; Percent Disease Control, Test B [2, 4]: 100%; Percent Disease Control, Test C [3, 4]: 99%
8 | COC(=O)c1ccccc1C1CC(c2csc(C3CCN(C(=O)Cn4nc(C(F)(F)F)cc4C)CC3)n2)=NO1 (stereo not drawn) [Compound 221] | – | – | – | Percent Disease Control, Test A [1, 4]: 100%; Percent Disease Control, Test B [2, 4]: 100%; Percent Disease Control, Test C [3, 4]: 99%
9 | Cc1cc(C(F)(F)F)nn1CC(=O)N1CCC(c2nc(C3=NOC(N4C(=O)C(=O)c5ccccc54)C3)cs2)CC1 (stereo not drawn) [Compound 222] | – | – | – | Percent Disease Control, Test A [1, 4]: 100%; Percent Disease Control, Test B [2, 4]: 100%; Percent Disease Control, Test C [3, 4]: 100%
10 | Cc1cc(C(F)(F)F)nn1CC(=O)N1CCC(c2nc(C3=NOC(N4C(=O)OC(C)(C)C4=O)C3)cs2)CC1 (stereo not drawn) [Compound 223] | – | – | – | Percent Disease Control, Test A [1, 4]: 100%; Percent Disease Control, Test B [2, 4]: 100%; Percent Disease Control, Test C [3, 4]: 100%
11 | C=CN1C(=O)C2ON=C(c3csc(C4CCN(C(=O)Cn5nc(C(F)(F)F)cc5C)CC4)n3)C2C1=O (stereo not drawn) [Compound 224] | – | – | – | Percent Disease Control, Test A [1, 4]: 0%; Percent Disease Control, Test B [2, 4]: 63%; Percent Disease Control, Test C [3, 4]: 0%
12 | Cc1cc(C(F)(F)F)nn1CC(=O)N1CCC(c2nc(C3=NOC(C(=O)N4CCOCC4)C3)cs2)CC1 (stereo not drawn) [Compound 226] | – | – | – | Percent Disease Control, Test A [1, 4]: 83%; Percent Disease Control, Test B [2, 4]: 100%; Percent Disease Control, Test C [3, 4]: 99%
13 | CCC(=O)N1N=C(c2csc(C3CCN(C(=O)Cn4nc(C(F)(F)F)cc4C)CC3)n2)OC12CCCc1ccccc12 (stereo not drawn) [Compound 227] | – | – | – | Percent Disease Control, Test A [1, 4]: 100%; Percent Disease Control, Test B [2, 4]: 100%; Percent Disease Control, Test C [3, 4]: 100%
14 | Cc1cc(C(F)(F)F)nn1CC(=O)N1CCC(c2nc(C3=NN(C(=O)C(C)C)C4(CCCc5ccccc54)O3)cs2)CC1 (stereo not drawn) [Compound 228] | – | – | – | Percent Disease Control, Test A [1, 4]: 99%; Percent Disease Control, Test B [2, 4]: 100%; Percent Disease Control, Test C [3, 4]: 100%
15 | O=C(Cn1nc(C(F)(F)F)cc1Cl)N1CCC(c2nc(C3=NO[C@]4(CCc5ccccc54)C3)cs2)CC1 [Compound 232, 2-[5-chloro-3-(trifluoromethyl)-1H-pyrazol-1-yl]-1-[4-[4-[(1R)-2,3-dihydrospiro[1-indene-1,5′(4′H)-isoxazol]-3′-yl]-2-thiazolyl]-1-piperidinyl]ethanone] | – | – | – | Percent Disease Control, Test A ([1]; ** tested at l0 ppm): 100%; Percent Disease Control, Test B ([2]; ** tested at l0 ppm): 100%; Percent Disease Control, Test C ([3]; ** tested at l0 ppm): 100%
16 | Cc1cc(C(F)(F)F)nn1CC(=O)N1CCC(c2nc(C3=NOC(N4Cc5ccccc5C4=O)C3)cs2)CC1 (stereo not drawn) [Compound 233] | 100% | 100% | 100% | –
17 | Cc1cc(C(F)(F)F)nn1CC(=O)N1CCC(c2nc(C3=NOC(N4C(=O)CN(C)C4=O)C3)cs2)CC1 (stereo not drawn) [Compound 234] | 99% | 100% | 100% | –
18 | Cc1cc(C(F)(F)F)nn1CC(=O)N1CCC(c2nc(C3=NOC(N4C(=O)N(C)C(C)(C)C4=O)C3)cs2)CC1 (stereo not drawn) [Compound 235] | 99% | 100% | 100% | –
19 | Cc1cc(C(F)(F)F)nn1CC(=O)N1CCC(c2nc(C3=NOC(N4C(=O)c5ccccc5S4(=O)=O)C3)cs2)CC1 (stereo not drawn) [Compound 236] | 100% | 100% | 100% | –
20 | CCOC(=O)c1cc(C)nn1CC(=O)N1CCC(c2nc(C3=NOC(c4ccccc4)C3)cs2)CC1 (stereo not drawn) [Compound 238] | 100% | 100% | 100% | –
21 | CCOc1cc(C(F)(F)F)nn1CC(=O)N1CCC(c2nc(C3=NOC(c4ccccc4)C3)cs2)CC1 (stereo not drawn) [Compound 241] | 100% | 100% | 100% | –
22 | Cc1cc(C(F)(F)F)nn1CC(=O)N1CCC(c2nc(N3CC(c4ccccc4)OC3=O)cs2)CC1 (stereo not drawn) [Compound 242] | 99% | 100% | 85% | –
23 | Cc1cc(C(F)(F)F)nn1CC(=O)N1CCC(c2nc(C3=NOC(N4C(=O)CCCC4=O)C3)cs2)CC1 (stereo not drawn) [Compound 243] | – | – | – | Percent Disease Control, Test A ([1]; ** tested at l0 ppm): 99%; Percent Disease Control, Test B ([2]; ** tested at l0 ppm): 100%; Percent Disease Control, Test C ([3]; ** tested at l0 ppm): 100%
24 | Cc1cc(C(F)(F)F)nn1CC(=O)N1CCC(c2nc(C3=NOC(n4oc(=O)n(C(C)C)c4=O)C3)cs2)CC1 (stereo not drawn) [Compound 244] | 98% | 100% | 99% | –
25 | Cc1cc(C(F)(F)F)nn1CC(=O)N1CCC(c2nc(-c3ccc(F)cc3)cs2)CC1 [Compound 245] | 99% | 74% | 0% | –
26 | Cc1cc(C(F)(F)F)nn1CC(=O)N1CCC(c2nc(-c3ccc(C(C)(C)C)cc3)cs2)CC1 [Compound 246] | 99% | 79% | 40% | –
27 | Cc1cc(C(F)(F)F)nn1CC(=O)N1CCC(c2nc(-c3ccc(C#N)cc3)cs2)CC1 [Compound 247] | 99% | 100% | 88% | –
28 | Cc1cc(C(F)(F)F)nn1CC(=O)N1CCC(c2nc(-c3ccc([N+](=O)[O-])cc3)cs2)CC1 [Compound 248] | 90% | 73% | 26% | –
